Results on 2 molecules are retold here after article PMC3349995 (Journal of Natural Products, 2012).

Converted amounts (≈) assume the structure as drawn.

By MIC is commonly meant the lowest concentration found to suppress growth.

The test system of experiment [1] is methicillin-sensitive Staphylococcus aureus (MSSA, ATCC #29213). Briefly: Antibacterial assay, MIC by dilution antimicrobial susceptibility test. As to conditions: ATCC29213|MSSA, 18 h, read-out: MIC against MSSA. The format is cell-based.
Experiment [2] deals with methicillin-resistant Staphylococcus aureus (MRSA, ATCC #33591). Described as above. The format is cell-based. To be noted: ATCC33591|MRSA, 18 h, read-out: MIC against MRSA.
For experiment [3] the following is noted: qualitative statement from the literature; cited from earlier work.

Take `CN[C@H](CC(C)C)C(=O)N[C@H]1C(=O)N[C@@H](CC(N)=O)C(=O)N[C@H]2C(=O)N[C@H]3C(=O)N[C@H](C(=O)N[C@H](C(=O)O)c4cc(O)cc(O)c4-c4cc3ccc4O)[C@H](O)c3ccc(c(Cl)c3)Oc3cc2cc(c3O[C@@H]2O[C@H](CO)[C@@H](O)[C@H](O)[C@H]2O[C@H]2C[C@](C)(N)[C@H](O)[C@H](C)O2)Oc2ccc(cc2Cl)[C@H]1O` [Vancomycin]: the MIC in experiment [1] and in experiment [2] was 1 µg/mL (≈ 0.69 µM) throughout. On to peptidolipin NA, for which, in experiment [3], the “antibacterial activity (reported)” value is listed as “moderate antibacterial activity”.
